Experimental data: ChEMBL document CHEMBL5154705, “Discovery and mechanistic study of thiazole-4-acylsulfonamide derivatives as potent and orally active ChemR23 inhibitors with a long-acting effect in cynomolgus monkeys” (Bioorg Med Chem, 2022)
pIC50: −log10 of the molar value. One block for each compound: values may come before it.

Columns and labels:
[1] = target: T1, Chemerin-like receptor 1 (Homo sapiens) (UniProt Q99788); settings: CAL1
T1 sequence (whole entry): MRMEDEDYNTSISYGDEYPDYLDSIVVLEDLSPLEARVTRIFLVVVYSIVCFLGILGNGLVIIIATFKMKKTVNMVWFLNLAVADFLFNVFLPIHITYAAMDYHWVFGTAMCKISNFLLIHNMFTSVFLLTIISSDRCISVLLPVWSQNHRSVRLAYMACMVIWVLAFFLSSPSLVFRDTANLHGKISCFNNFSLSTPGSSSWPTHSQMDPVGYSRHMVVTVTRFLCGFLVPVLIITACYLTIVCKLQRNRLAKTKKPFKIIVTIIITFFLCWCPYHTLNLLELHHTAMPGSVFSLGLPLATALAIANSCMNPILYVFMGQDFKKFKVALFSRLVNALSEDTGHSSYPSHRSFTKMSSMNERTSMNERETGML

[2] = Drug concentration in cynomolgus monkey plasma at 1 mg/kg, po after 8 hrs; type: ADME, organism-based, Macaca fascicularis
[3] = MRT in cynomolgus monkey at 0.3 to 1 mg/kg, po; type: ADME, organism-based, Macaca fascicularis; settings: in vivo, dose 0.3-1 mg/kg
[4] = Cmax in cynomolgus monkey at 0.3 to 1 mg/kg, po; type: ADME, organism-based, Macaca fascicularis; parameters: route po; settings: in vivo, dose 0.3-1 mg/kg
[5] = Tmax in cynomolgus monkey at 0.3 to 1 mg/kg, po; type: ADME, organism-based, Macaca fascicularis; settings: in vivo, dose 0.3-1 mg/kg
[6] = Half life in cynomolgus monkey at 0.3 to 1 mg/kg, po; type: ADME, organism-based, Macaca fascicularis; settings: in vivo, dose 0.3-1 mg/kg
[7] = AUC(0 to infinity) in cynomolgus monkey at 0.3 to 1 mg/kg, po; type: ADME, organism-based, Macaca fascicularis; parameters: route po; settings: in vivo, dose 0.3-1 mg/kg
[8] = target: T1, Chemerin-like receptor 1 (Homo sapiens); assay: Binding affinity to ChemR23 (unknown origin) expressed in HEK293T cells at 40 to 1000 nM by flow cytometric analysis; type: cell-based; settings: dose 40-1000 nM, DDE = dose-dependent effect
[9] = Tmax in cynomolgus monkey at 0.3 mg/kg, po; type: ADME, organism-based, Macaca fascicularis; settings: in vivo
[10] = MRT in cynomolgus monkey at 0.3 mg/kg, po; type: ADME, organism-based, Macaca fascicularis; settings: in vivo
[11] = Drug concentration in cynomolgus monkey plasma at 0.3 mg/kg, po after 8 hrs; type: ADME, organism-based, Macaca fascicularis
[12] = Cmax in cynomolgus monkey at 0.3 mg/kg, po; type: ADME, organism-based, Macaca fascicularis; parameters: dose 0.3 mg/kg, route po; settings: in vivo
[13] = AUC(0 to infinity) in cynomolgus monkey at 0.3 mg/kg, po; type: ADME, organism-based, Macaca fascicularis; parameters: time infinity, dose 0.3 mg/kg, route po; settings: in vivo
[14] = Half life in cynomolgus monkey at 0.3 mg/kg, po; type: ADME, organism-based, Macaca fascicularis; settings: in vivo
[15] = AUC(0 to infinity) in cynomolgus monkey at 1 mg/kg, po; type: ADME, organism-based, Macaca fascicularis; parameters: time infinity, dose 1 mg/kg, route po; settings: in vivo
[16] = Half life in cynomolgus monkey at 1 mg/kg, po; type: ADME, organism-based, Macaca fascicularis; settings: in vivo
[17] = MRT in cynomolgus monkey at 1 mg/kg, po; type: ADME, organism-based, Macaca fascicularis; settings: in vivo
[18] = Cmax in cynomolgus monkey at 1 mg/kg, po; type: ADME, organism-based, Macaca fascicularis; parameters: dose 1 mg/kg, route po; settings: in vivo
[19] = Tmax in cynomolgus monkey at 1 mg/kg, po; type: ADME, organism-based, Macaca fascicularis; settings: in vivo
Chemerin-like receptor 1 = target: T2, Chemerin-like receptor 1 (Homo sapiens, UniProt Q99788); assay: Inhibition of human ChemR23 expressed in CAL-1 cells assessed as reduction in chemerin-induced calcium signaling; type: functional, cell-based, CAL1
T2 sequence (Q99788 whole entry): T1 sequence (whole entry)

Compound: Cc1ccc(-c2nc(=O)o[nH]2)c(-c2ccc([C@@H](C)N(CC3CC3)c3nc(C(=O)NS(=O)(=O)C4CC4)c(-c4ccccc4)s3)cc2)c1
- IC80 [1]: > 330 nM

Compound: COCCc1sc(N(CC2CC2)[C@H](C)c2ccc(-c3cc(C)ccc3-c3nc(=O)o[nH]3)cc2)nc1C(=O)NS(=O)(=O)C1CC1
- concentration at 8 h [2]: 274 ng/mL
- MRT [3]: 4.2 h
- IC80 [1]: 33 nM
- Cmax [4]: 3530 ng/mL
- Tmax [5]: 2.7 h
- half-life [6]: 2.6 h
- AUC(0-inf) [7]: 12800 ng·h/mL

Compound: COc1cccc(-c2sc(N(CC3CC3)[C@H](C)c3ccc(-c4cc(C)ccc4-c4nc(=O)o[nH]4)cc3)nc2C(=O)NS(=O)(=O)C2CC2)c1
- IC80 [1]: 42 nM

Compound: C[C@H](c1ccc(-c2cc(Cl)ccc2C(=O)NCCOCCOCCOCCOCCOCCOCCn2nnc3c2-c2ccccc2N(C(=O)CCNC(=O)CCOCCOCCOCCOCCNC(=O)c2ccc(C(=O)[O-])c(-c4c5ccc(=[N+](C)C)cc-5oc5cc(N(C)C)ccc45)c2)Cc2ccccc2-3)cc1)N(CC1CC1)c1nc(C(=O)NS(=O)(=O)C2CC2)c(C2CC2)s1
- Activity [8]: Dde

Compound: Cc1ccc(-c2nc(=O)o[nH]2)c(-c2ccc([C@@H](C)N(CC3CC3)c3nc(C(=O)NS(=O)(=O)C4CC4)c(-c4cccnc4)s3)cc2)c1
- IC80 [1]: 39 nM

Compound: CCc1sc(N(CC2CC2)[C@H](C)c2ccc(-c3cc(C)ccc3-c3nc(=O)o[nH]3)cc2)nc1C(=O)NS(=O)(=O)C1CC1
- concentration at 8 h [2]: 85.7 ng/mL
- MRT [3]: 2.9 h
- IC80 [1]: 63 nM
- Cmax [4]: 5970 ng/mL
- Tmax [5]: 1.7 h
- half-life [6]: 3 h
- AUC(0-inf) [7]: 10300 ng·h/mL

Compound: Cc1ccc(-c2nc(=O)o[nH]2)c(-c2ccc([C@@H](C)N(CC3CC3)c3nc(C(=O)NS(=O)(=O)C4CC4)c(C)s3)cc2)c1
- concentration at 8 h [2]: 233 ng/mL
- MRT [3]: 4.2 h
- IC80 [1]: 53 nM
- Cmax [4]: 3180 ng/mL
- Tmax [5]: 3.3 h
- half-life [6]: 2.1 h
- AUC(0-inf) [7]: 12500 ng·h/mL

Compound: Cc1sc(N(CC2CC2)[C@H](C)c2ccc(-c3cc(Cl)ccc3-c3nc(=O)o[nH]3)cc2)nc1C(=O)NS(=O)(=O)C1(C)CC1
- IC80 [1]: 110 nM

Compound: C[C@H](c1ccc(-c2cc(Cl)ccc2C(=O)NCCOCCOCCOCCOCCOCCOCCn2nnc3c2-c2ccccc2N(C(=O)CCNC(=O)CCOCCOCCOCCOCCNC(=O)CCCC[C@@H]2SC[C@@H]4NC(=O)N[C@@H]42)Cc2ccccc2-3)cc1)N(CC1CC1)c1nc(C(=O)NS(=O)(=O)C2CC2)c(C2CC2)s1
- pIC50 (Chemerin-like receptor 1): 7.85

Compound: CCS(=O)(=O)NC(=O)c1nc(N(CC2CC2)[C@H](C)c2ccc(-c3cc(Cl)ccc3-c3nc(=O)o[nH]3)cc2)sc1C
- concentration at 8 h [2]: 14 ng/mL
- AUC(0-inf) [15]: 2170 ng·h/mL
- Cmax [18]: 716 ng/mL

The next lines start with the values.

- IC80 [1]: 24 nM
Compound: C[C@H](c1ccc(-c2cc(Cl)ccc2C(=O)O)cc1)N(CC1CC1)c1nc(C(=O)NS(=O)(=O)C2CC2)c(C2CC2)s1

- Tmax [9]: 4 h
- MRT [10]: 5.3 h
- concentration at 8 h [11]: 87.7 ng/mL
- Cmax [12]: 296 ng/mL
- AUC(0-inf) [13]: 2060 ng·h/mL
- half-life [14]: 2.6 h
Compound: CCONC(=O)c1ccc(Cl)cc1-c1ccc([C@@H](C)N(CC2CC2)c2nc(C(=O)NS(=O)(=O)C3CC3)c(C3CC3)s2)cc1

- concentration at 8 h [2]: 1010 ng/mL
- AUC(0-inf) [15]: 24000 ng·h/mL
- half-life [16]: 2.9 h
- MRT [17]: 5.9 h
- IC80 [1]: 38 nM
- Cmax [18]: 3480 ng/mL
- Tmax [19]: 3.3 h
Compound: CONC(=O)c1ccc(C)cc1-c1ccc([C@@H](C)N(CC2CC2)c2nc(C(=O)NS(=O)(=O)C3CC3)c(C3CC3)s2)cc1

- Tmax [9]: 4 h
- MRT [10]: 6.4 h
- concentration at 8 h [11]: 453 ng/mL
- Cmax [12]: 897 ng/mL
- IC80 [1]: 9 nM
- AUC(0-inf) [13]: 8720 ng·h/mL
- half-life [14]: 3.6 h
Compound: CNC(=O)c1ccc(Cl)cc1-c1ccc([C@@H](C)N(CC2CC2)c2nc(C(=O)NS(=O)(=O)C3CC3)c(C3CC3)s2)cc1

- concentration at 8 h [2]: 996 ng/mL
- AUC(0-inf) [15]: 21400 ng·h/mL
- half-life [16]: 3 h
- MRT [17]: 6.1 h
- IC80 [1]: 57 nM
- Cmax [18]: 2810 ng/mL
- Tmax [19]: 4 h
Compound: CNC(=O)c1ccc(C)cc1-c1ccc([C@@H](C)N(CC2CC2)c2nc(C(=O)NS(=O)(=O)C3CC3)c(C3CC3)s2)cc1

- concentration at 8 h [2]: 2090 ng/mL
- AUC(0-inf) [15]: 39800 ng·h/mL
- half-life [16]: 3.2 h
- MRT [17]: 6.5 h
- Cmax [18]: 4190 ng/mL
- Tmax [19]: 4 h
Compound: Cc1ccc(-c2nc(=O)s[nH]2)c(-c2ccc([C@@H](C)N(CC3CC3)c3nc(C(=O)NS(=O)(=O)C4CC4)c(C4CC4)s3)cc2)c1

- concentration at 8 h [2]: 10 ng/mL
- AUC(0-inf) [15]: 1730 ng·h/mL
- IC80 [1]: 66 nM
- Cmax [18]: 722 ng/mL
Compound: Cc1sc(N(CC2CC2)[C@H](C)c2ccc(-c3cc(Cl)ccc3-c3nc(=O)o[nH]3)cc2)nc1C(=O)NS(=O)(=O)C1CCCC1
